Laboratory results reported in US12697328B2, “Methods for treating metastasis with cathepsin C inhibitors” (Shanghai Institute of Nutrition and Health, Chinese Academy …, priority 2020, dated 2026).

T1: membrane-bound PR3 (Homo sapiens, UniProt P24158)
T1 construct: endogenous in cells; host or cells: human peripheral-blood neutrophils (whole-cell suspension)
T1 sequence (P24158 28-248): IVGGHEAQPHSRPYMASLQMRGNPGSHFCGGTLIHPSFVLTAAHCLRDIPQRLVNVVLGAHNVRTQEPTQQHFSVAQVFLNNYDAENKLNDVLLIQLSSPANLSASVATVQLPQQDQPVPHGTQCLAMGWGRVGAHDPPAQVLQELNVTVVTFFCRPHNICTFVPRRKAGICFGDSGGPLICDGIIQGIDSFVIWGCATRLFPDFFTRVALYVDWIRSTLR


What was measured:
Assay type in all cases: cell-based
murine neutrophils = assay: Reactive oxygen species (ROS) analysis of neutrophils pre-treated with 4T07 conditioned medium; conditions: 4T07 CM with CTSC overexpressed, inhibitors 10 μM, FIGS. 8C, 8E
Protocol: To measure the ROS levels, neutrophils were cultured in cancer cell CM or non-conditioned medium, and treated with DMSO or various inhibitors, including Sivelestat (10 μM), BAY11-7082 (10 μM) and SB203580 (10 μM) for 1 h at 37° C. Cells were then harvested and resuspended in assay buffer (PBS, 4 mM EGTA, pH 7.4, containing 10 μM CM-H2DCFDA, Invitrogen), incubated for 15 min at 37° C. in dark, washed with pre-chilled PBS, followed by FACS analysis within 30 min.
The release of reactive oxygen species (ROS) by neutrophils is known to induce NET formation. […] Commum. 6, 6673 (2015).
ROS analysis of murine neutrophils pre-treated with 4T07 conditioned medium show increased ROS production results from CTSC overexpression (FIG. 8E).

IL-1β = IL-1β secretion of neutrophils pre-treated with CM of SCP28 cancer cells (ELISA); conditions: human neutrophils pre-treated with CM of SCP28 with CTSC overexpressed; FIG. 7H
Protocol: ELISA kits were used to assay the levels of human IL-1β (88-7621-88, ThermoFisher), mouse IL-1β (432604, Biolegend), mouse IL6 (88-7064-88, ThermoFisher), mouse CCL3 (88-56013-88, ThermoFisher) in cell culture supernatants or sera according to the manufacturer's instruction. Briefly, 96-well MaxiSorp™ ELISA Plates (44-2404, ThermoFisher) was coated with capture antibody overnight at 4° C. in coating buffer (15 mM of Na2CO3, 35 mM of NaHCO3, at pH 9.6). After three washes in PBS, the wells were blocked with 5% BSA in PBS for 45 min at room temperature. Then, 100 μl of cell culture supernatants or sera and standard samples were added into the wells and incubated for 2 h at room temperature, and the plates were washed three times with washing buffer (1% BSA, 0.05% Tween-20 in PBS). Next, biotin-conjugated detection antibody in 2.5% BSA was added into the wells and incubated for 2 h at room temperature. After three washes with washing buffer, HRP-streptavidin was incubated for 45 min at room temperature. Then, signals were detected using TMB solution and read at 450 nm.

4T07 cancer cells = assay: Three-dimensional spheroid culture of 4T07 cells in neutrophil medium; conditions: rmTSP-1 alone, FIG. 8H
Protocol: The procedure of 3D spheroids culture assay was previously reported (Taylor et al., “Lysyl oxidase contributes to mechanotransduction-mediated regulation of transforming growth factor-beta signaling in breast cancer cells,” Neoplasia 13:406-418 (2011)). Briefly, 4T07 cells (200 per well) were cultured in 48-well plates on 100% growth-factor-reduced Matrigel (356231, BD) cushions in spheroid medium (a 1:1 mixture of 1% FBS DMEM and medium from neutrophils cultured in the cancer cell CM, 50% Matrigel supplemented with 50 μg/ml mTSP-1 (7859-TH-050). Upon completed gelation, 250 μl of culture medium (a 1:1 mixture of 1% FBS DMEM and medium from neutrophils cultured in the cancer cell CM) with 10 μg/ml mTSP-1 (7859-TH-050) was added to each well and the culture medium was changed every three days. On day 7-10, the numbers of the spheroids were analyzed.
When both rmTSP-1 and an IL6-blocking antibody are added to CTSC overexpressing 4T07 conditioned medium, spheroid growth is inhibited (FIG. 8I, left panel). […] The inhibitory effects of α-IL6, DNase I, and a combination thereof, on spheroid formation can be seen in the images provided in FIG. 8I.

membrane-bound PR3 = target: T1, membrane-bound PR3; assay: Membrane-bound PR3 activity of neutrophils cultured with CM of SCP28 cells overexpressing CTSC; conditions: Sivelestat 10 μM, Alvelestat 10 μM, CTSGi 20 μM, FIG. 7D
Protocol: The procedure of enzyme activity assays were conducted as previously reported (Korkmaz et aL, “Neutrophil proteinase 3 and dipeptidyl peptidase I (cathepsin C) as pharmacological targets in granulomatosis with polyangiitis (Wegener granulomatosis),” Semin. Immunopathol. 35:411-421 (2008)). The PR3 or NE enzymatic activity was quantified by detecting the rate of hydrolysis of the PR3-specific substrate (Abz)-VADnorVADRQ-(EDDnp) or NE specific substrate (Abz)-APEEIMRRQ-(EDDnp) by cell suspension or free enzymes. To analyze membrane-bound PR3 activity, neutrophils were cultured in cancer cell CM or non-conditioned medium, and treated with DMSO or various inhibitors, including Sivelestat (10 μM), Alvelestat (10 μM) and CTSGi (20 μM) for 30-45 min at 37° C. Then, cells were suspended in activity buffer (5×10^6 per ml, PBS, 4 mM EGTA, pH 7.4) with 15 μM of the PR3-specific substrate, and the kinetic of hydrolysis was followed by measuring the fluorescence at λex=320 nm and λem=420 nm. For activation of PR3 in isolated plasma membrane fraction, recombinant human CTSC (1071-CY, R&D) was activated according to the manufacturer's instruction. […] The activity of free PR3 and NE were measured in the assay buffer (50 mM Tris, 750 mM NaCl, pH 7.4) with 15 μM specific substrates by recording the fluorescence at λex=320 nm and λem=420 nm. […]

p38 = p38 phosphorylation in neutrophils pre-treated with 4T1 conditioned medium and/or rhPR3; conditions: murine neutrophils pre-treated with 4T1 CM and/or rhPR3, regardless of CTSC knockdown; FIG. 8D
Protocol: Cultured cells were collected by scraper or trypsinized and then lysed with lysis buffer (50 mM Tris-HCl, 150 mM NaCl, 1% NP-40 detergent, 0.5% sodium deoxycholate, 0.1% SDS with phosphatase and protease inhibitors), and dispersed tissue were homogenized in RIPA buffer on ice for 15 min, followed by centrifugation at 17,000 g for 15 min. The protein concentration was measured with a BCA Protein Assay Kit. Proteins of […] were loaded for membrane proteins, IL-1β processing, p65 phosphorylation and the other assays, respectively, and separated on 8-12% SDS-polyacrylamide gel. For cancer cell conditioned medium (CM) collection, cells were grown to ~80% confluence in 10 cm culture dishes. After three times washing with serum-free medium at 37° C., the cells were incubated in serum-free medium at 37° C. for 24 h. The CM were collected, centrifuged at 2,000 g for 10 min, filtrated by 0.22 μm filters, stored at −80° C. until used. The secreted proteins in CM were collected by TCA precipitation. Briefly, 25% v/v TCA was added into 1 ml CM with phosphatase and protease inhibitors, incubated overnight at 4° C., and then centrifuged at 20,000 g for 60 min, after which the supernatant was discarded and the pellet was washed twice with 1 ml pre-chilled acetone, centrifuged again at 20,000 g for 5 min at 4° C. […]

Molecule | ROS production / ROS levels (murine neutrophils) | IL-1β levels (secretion) of neutrophils (IL-1β) | also measured
Cc1ccc(S(=O)(=O)/C=C/C#N)cc1 [BAY 11-7082] | no effect | does not reduce | 
C[S+]([O-])c1ccc(-c2nc(-c3ccncc3)c(-c3ccc(F)cc3)[nH]2)cc1 (centres unmarked) [SB203580] | significantly reduces |  | 
rmTSP-1: recombinant murine TSP-1, a metastasis-suppressive ECM protein |  |  | spheroid growth of 4T07 cancer cells (4T07 cancer cells; CTSC overexpressing 4T07 conditioned medium): does not block; spheroid growth of 4T07 cancer cells (4T07 cancer cells; neutrophil medium pre-treated with PMA): unable to block
Cc1c(-c2ccnn2C)cc(C(=O)NCc2ccc(S(C)(=O)=O)cn2)c(=O)n1-c1cccc(C(F)(F)F)c1 [Alvelestat] |  | only PR3 inhibitor Silvelestat reduces | upregulated PR3 activity resulting from CTSC overexpression (membrane-bound PR3): no effect
rhPR3: recombinant human active PR3 (protein, UniProt P24158 28-248, looked up) Myeloblastin: IVGGHEAQPHSRPYMASLQMRGNPGSHFCGGTLIHPSFVLTAAHCLRDIPQRLVNVVLGAHNVRTQEPTQQHFSVAQVFLNNYDAENKLNDVLLIQLSSPANLSASVATVQLPQQDQPVPHGTQCLAMGWGRVGAHDPPAQVLQELNVTVVTFFCRPHNICTFVPRRKAGICFGDSGGPLICDGIIQGIDSFVIWGCATRLFPDFFTRVALYVDWIRSTLR |  |  | p38 phosphorylation (p38): increased
